From paper PMC4433340 (PLoS Neglected Tropical Diseases, 2015)

Legend:
[1] = tested on: 15-epi-lipoxin A4 production by EA.hy926 cells; assay: 15-epi-lipoxin A4 determination by ELISA in culture supernatants; assay type: cell-based, human; conditions: ELISA (Fig 7A); for 15-epi-LXA4 production in T. cruzi-infected endothelial cells: EA.hy926 infected 16 hours, drug added afterwards
Method: 8x10^5 EA.hy926 cells/well were cultured in 6-well plates (IMDM 10% SFB). […] 15-epi-LXA4 determination was performed by:
• ELISA assay: the supernatant from the cell cultures was assayed using a 15-epi-LXA4 BioAssay ELISA Kit (USBiological, USA) following manufacturer’s instructions. • AxION DSA—TOF MS determination: To determine 15-epi-lipoxin A4 levels in EAhy926 cell culture supernatants, an AxION Direct Sample Analysis (DSA) that was integrated with an AxION 2 time-of-flight (TOF) mass spectrometer (PerkinElmer, Shelton, CT, USA) was employed. For extraction, all of the samples were loaded onto a solid phase extraction and eluted with 1 mL chloroform three times successively. Then, the samples were transferred into a clean tube, and the chloroform in the samples was evaporated in a water bath. Finally, the samples were resuspended in 100 μL ethanol, and 10 μL were pipetted onto a stainless mesh. For the calibration curve, 15-epi-lipoxin A4 (cat#90415, Cayman Chemical, USA) was diluted in PBS to achieve different final concentrations (see S1 Fig). From each tube, 10 μL was pipetted onto a stainless mesh, and DSA—TOF determination was performed. The AxION DSA conditions were as follows: 5 μA corona current, 250°C heater temperature, 80 psi auxiliary gas (N2) pressure, 4 L/min drying gas (N2) flow, and 25°C drying gas (N2) temperature. […] Mass spectra were acquired with a mass range of 100–1000 m/z and an acquisition rate of 2 spectra/sec. To maintain mass accuracy, […] lock mass ions were used (m/z 119.0400, m/z 556.0000 and m/z 805.9900). All of the samples were analyzed for only 10 sec. The standards used were 15-epi-lipoxin A4 (cat#90415, Cayman Chemical,) and 5(S),6(R)-Lipoxin A4 methyl ester (cat#10033, Cayman Chemical) as an internal standard. These were confirmed in seconds by accurate mass and isotopic distribution of parent and fragment ions using DSA/TOF and AxION software, and compound identification was performed using the standards. All of the samples were analyzed in triplicate.

HL-60 cells = assay: Cell viability by MTT reduction assay, HL-60 cells; assay type: cell-based; conditions: Homo sapiens, 24 hours incubation, mean ± SD, n = 3, read-out: IC50, cellular viability, HL-60 cells
Method: HL-60 cells (ATCC CCL240) are a promyelocytic cell line that was derived by S.J. Collins et al. Peripheral blood leukocytes were obtained by leukapheresis from a person with acute promyelocytic leukemia. The cell line was cultured with Iscove's Modified Dulbecco's Medium plus 10% v/v FBS.
(§1) The effect of the drug on all cells and parasite viability was evaluated through the tetrazolium salt (MTT, Sigma-Aldrich) reduction assay as described. […] Cultures were incubated for 24 hours before adding MTT for 4 hours. The plates were incubated overnight with 10% SDS w/v in 0.01 M HCl at 37°C, and optical density (OD) was determined using a microplate reader (Labsystems Multiskan MS, Finland) at 570 nm. Under these conditions, the OD was directly proportional to viable cell number per well. All of the experiments were performed at least three times, and the data are shown as the means and their standard deviations from triplicate cultures.

[2] = tested on: total E-selectin, ICAM-1 and VCAM-1 protein in T. cruzi-infected endothelial cells; assay: Total ECAM protein by Western blot; assay type: cell-based, human; conditions: 5 μM simvastatin or 20 μM benznidazole for 24 hours before 16 hours infection
Method: (§2) 5x10^5 endothelial cells were rinsed once with PBS and scraped. Proteins were extracted into 100 μL RIPA buffer plus a protease and phosphatase inhibitor cocktail (Radio-Immunoprecipitation Assay; Millipore Corporation, USA) at 4°C. Total protein was quantified with the Lowry assay. Samples in loading buffer (10% SDS, 50% glycerol, 0.5 M Tris, 0.1% bromophenol blue, and 1 M dithiothreitol, pH 6.8) were electrophoretically separated by 10% SDS-PAGE and transferred to a nitrocellulose membrane. Nitrocellulose membranes were incubated with blocking solution (5% w/v nonfat dry milk, 0.1% Tween-20 in Tris-buffered saline) at room temperature for 1 hour. Then, the membranes were incubated at 4°C overnight with 1 mL solution of primary antibodies against E-selectin (1:1000) and α-Tubulin (1:10.000) from Sigma-Aldrich, ICAM-1 (1:2000) and VCAM-1 (1:1000) from Abcam, 7 ml solution of p-IKK (1:1000), IKK (1:1000), p-IκB (1:1000) and IκB (1:1000) from Cell signaling (Cell Signaling Technologies, USA). Bound antibodies were detected with horseradish peroxidase-conjugated secondary antibodies and visualized by Lumminata forte (Millipore). The nitrocellulose was stripped between reprobes using Mild stripping (Millipore) for 10 minutes. Developed films were scanned, and band densitometry was analyzed using ImageJ software (ImageJ 1.47v).

HUVEC = assay: Cell viability by MTT reduction assay, HUVEC; assay type: cell-based; conditions: Homo sapiens, 24 hours incubation, mean ± SD, n = 3, read-out: IC50, cellular viability, HUVEC
Method: HUVECs (C-015-10C, Cascade Biologics, Life Technologies, USA) are primary human umbilical vein endothelial cells that are pooled from multiple donors. Cells were cultured in medium 200 (Cascade Biologics, USA) that had been supplemented with low serum growth supplement (LSGS, Cascade Biologics).
as §1

EA.hy926 cells = assay: Cell viability by MTT reduction assay, EA.hy926 cells; assay type: cell-based; conditions: Homo sapiens, EA.hy 926, 24 hours incubation, mean ± SD, n = 3, read-out: IC50, cellular viability, EA.hy926 cells
Method: EA.hy926 cells (ATCC CRL2922) are a human umbilical vein cell line established by fusing primary human umbilical vein cells with a thioguanine-resistant clone of A549 by exposure to polyethylene glycol (PEG). Hybrid clones were selected in HAT medium and screened for factor VIII-related antigen. The cell line was cultured following reported conditions. Cells were cultured on Iscove's Modified Dulbecco's Medium (IMDM, Biological Industries, Israel) supplemented with 10% v/v FBS, 100 U/mL penicillin, and […] streptomycin at 37°C and 5% CO2.
as §1

[3] = tested on: NF-κB pathway (p-IKK, p-IκB) in T. cruzi-infected EA.hy926 cells; assay: IKK and IκB phosphorylation by Western blot; assay type: cell-based, human; conditions: 5 μM simvastatin or 20 μM benznidazole, T. cruzi 1 hour
Method: as §2

CCC(C)(C)C(=O)O[C@H]1C[C@@H](C)C=C2C=C[C@H](C)[C@H](CC[C@@H]3C[C@@H](O)CC(=O)O3)[C@H]21 [Simvastatin]
15-epi-LXA4 levels with drug alone ([1]; 5 μM simvastatin, EA.hy926 without T. cruzi): rose slightly
15-epi-LXA4 production in T. cruzi-infected endothelial cells [1]: induced 15-epi-LXA4
IC50 (HL-60 cells): 68 ± 1.11 µM
Total cell adhesion molecule protein amount [2]: decreased cell adhesion molecule amount
IC50 (HUVEC): 84.4 ± 1.56 µM
IC50 (EA.hy926 cells): 65.4 ± 1.02 µM
Response of the IKK-IκB system (p-IKK, p-IκB) [3]: significantly decreased the response of the Ikk-IkB system

O=C(Cn1ccnc1[N+](=O)[O-])NCc1ccccc1 [Benznidazole]
15-epi-LXA4 production in T. cruzi-infected endothelial cells [1]: did not induce
IC50 (HL-60 cells): < 100 µM
Total cell adhesion molecule protein amount [2]: decreased cell adhesion molecule amount
IC50 (HUVEC): < 100 µM
IC50 (EA.hy926 cells): < 100 µM
Response of the IKK-IκB system (p-IKK, p-IκB) [3]: significantly decreased the response of the Ikk-IkB system
